Test results reported in paper PMC10250618, “Synthesis, structure-activity relationships and biological evaluation of benzimidazole derived sulfonylurea analogues as a new class of antagonists of P2Y1 receptor” (Frontiers in Pharmacology, 2023).
Where two headings read alike, the source gives them in different places.

Experiments:
t-P2Y1 = target: T1, t-P2Y1 (Meleagris gallopavo, UniProt P49652); assay: Calcium mobilization assay, t-P2Y1 transfected 1321N1 astrocytoma cells; assay type: cell-based; details: for inhibition at 100 µM: 1321-N1, final conc of 100 μM
T1 construct: host or cells: human 1321N1 astrocytoma cells, stably transfected
T1 sequence (P49652 whole entry): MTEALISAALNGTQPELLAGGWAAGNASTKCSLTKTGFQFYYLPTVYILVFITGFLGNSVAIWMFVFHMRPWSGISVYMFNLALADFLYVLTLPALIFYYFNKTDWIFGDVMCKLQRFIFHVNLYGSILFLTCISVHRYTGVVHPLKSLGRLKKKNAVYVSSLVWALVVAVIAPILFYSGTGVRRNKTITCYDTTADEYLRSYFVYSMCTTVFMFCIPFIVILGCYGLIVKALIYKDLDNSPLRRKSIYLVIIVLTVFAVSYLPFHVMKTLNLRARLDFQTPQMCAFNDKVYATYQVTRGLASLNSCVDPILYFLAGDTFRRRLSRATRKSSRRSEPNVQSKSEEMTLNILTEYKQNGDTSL
Description: (§1) Dr. Gary A. Weisman provided human-1321N1 astrocytoma cells that had been transfected by the tP2Y1R, hP2Y2R, hP2Y4R, and rP2Y6R and untransfected 1321N1 astrocytoma cells (University of Missouri Mo., Bond Life Science Center). The DMEM Dulbecco’s Modified Eagle -Medium (Gibco) was added in flasks to cultivate the cell line. 10% of the Fetal bovine serum was also added to the media together with 500 μg/mL of Geneticin (G418) and 1% of the Pen/Strep. The cells in T-75 flask were then cultured and incubated in a CO2 incubator which was maintained at (5%) and 37°C temperature until 90% of the cells were confluent. Throughout the experiment, cells were periodically checked for the confluency and strictly watched for the microbial contamination.
(§2) The FLUOstar Galaxy (BMG LABTECH GmbH, Ortenberg, Germany) microplate reader with two injectors was used to measure the Ca^2+ fluorescence of synthetic compounds. For this assay, 1321N1 transfected cells (t-P2Y1, h-P2Y2, h-P2Y4, and r-P2Y6) were cultured in T-75 flask. When cells reached the confluency of 80%–90%, they were washed with PBS and then Trypsin was added. After trypsinization for 3 min, 20,000 cells/well were allowed to seed in a black wall and 96 well clear bottom plate which was coated with Poly-D-Lysine and allowed to incubate for 24 h in 37°C, 5% CO2 incubator. After incubation, 200 μL culture media was changed with 100 μL HBSS containing Fura-2 AM which is calcium chelating dye and allowed the plate to incubate for 45 min in dark at temp of 37°C in incubator which is maintained with carbon dioxide (5% CO2). After incubation for 45 min, synthesized molecules were added to HBSS washed cells in each well of 96 well plate and re-incubated for 30 min at 37°C. In next step, injection of the endogenous ligand such as ADP through the injector was followed by excitation and emission measurements of Fura-2 AM at 380/520 nm and 340/520. Final volume of the assay per well 200 μL. IC50 values were computed for the compounds displaying more than 50% of activity using Prism 5.0 software (Graph Pad., Inc., San Diego. California, United States) by using analysis i.e., nonlinear regression ([Kassack et al., 2002]; [Ullmann et al., 2005]).

h-P2Y2 = target: T2, h-P2Y2 (Homo sapiens, UniProt P41231); assay: Calcium mobilization assay, h-P2Y2 transfected 1321N1 astrocytoma cells; assay type: cell-based; details: for inhibition at 100 µM: 1321-N1, final conc of 100 μM
T2 construct: host or cells: human 1321N1 astrocytoma cells, stably transfected
T2 sequence (P41231 whole entry): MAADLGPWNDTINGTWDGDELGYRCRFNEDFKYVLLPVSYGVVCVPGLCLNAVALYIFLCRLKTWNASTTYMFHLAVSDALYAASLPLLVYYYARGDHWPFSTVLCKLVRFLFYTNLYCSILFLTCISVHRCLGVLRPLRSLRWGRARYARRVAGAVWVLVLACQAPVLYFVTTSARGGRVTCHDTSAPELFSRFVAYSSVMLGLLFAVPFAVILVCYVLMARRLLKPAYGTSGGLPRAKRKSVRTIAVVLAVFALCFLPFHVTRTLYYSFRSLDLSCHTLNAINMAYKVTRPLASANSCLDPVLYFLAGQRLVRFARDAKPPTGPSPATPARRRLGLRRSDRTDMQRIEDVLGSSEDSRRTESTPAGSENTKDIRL
Description: as §1, §2

h-P2Y4 = target: T3, h-P2Y4 (Homo sapiens, UniProt P51582); assay: Calcium mobilization assay, h-P2Y4 transfected 1321N1 astrocytoma cells; assay type: cell-based
T3 construct: host or cells: human 1321N1 astrocytoma cells, stably transfected
T3 sequence (P51582 whole entry): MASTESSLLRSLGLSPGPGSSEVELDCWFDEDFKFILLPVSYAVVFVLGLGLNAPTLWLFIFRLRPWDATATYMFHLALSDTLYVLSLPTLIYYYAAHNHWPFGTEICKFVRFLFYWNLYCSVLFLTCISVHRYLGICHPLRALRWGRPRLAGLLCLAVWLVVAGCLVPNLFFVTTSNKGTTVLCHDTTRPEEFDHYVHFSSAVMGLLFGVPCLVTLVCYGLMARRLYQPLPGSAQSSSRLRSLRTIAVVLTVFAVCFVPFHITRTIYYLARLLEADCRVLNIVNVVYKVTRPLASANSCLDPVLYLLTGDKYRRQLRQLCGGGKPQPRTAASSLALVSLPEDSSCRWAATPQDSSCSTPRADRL
Description: as §1, §2

r-P2Y6 = target: T4, r-P2Y6 (Rattus norvegicus, UniProt Q63371); assay: Calcium mobilization assay, r-P2Y6 transfected 1321N1 astrocytoma cells; assay type: cell-based; details: for inhibition at 100 µM: 1321-N1, final conc of 100 μM
T4 construct: host or cells: human 1321N1 astrocytoma cells, stably transfected
T4 sequence (Q63371 whole entry): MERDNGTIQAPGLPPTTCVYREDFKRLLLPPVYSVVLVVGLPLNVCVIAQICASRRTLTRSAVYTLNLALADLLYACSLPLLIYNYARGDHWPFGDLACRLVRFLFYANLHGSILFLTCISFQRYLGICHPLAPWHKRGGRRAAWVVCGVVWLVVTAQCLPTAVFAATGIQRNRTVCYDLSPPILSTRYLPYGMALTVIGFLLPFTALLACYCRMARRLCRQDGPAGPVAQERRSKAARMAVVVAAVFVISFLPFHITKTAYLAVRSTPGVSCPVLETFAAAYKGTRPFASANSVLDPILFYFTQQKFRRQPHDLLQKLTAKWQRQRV
Description: as §1, §2

[1] = MTT assay, non-transfected 1321N1 astrocytoma cells; assay type: cell-based, human; details: human, non-transfected 1321N1 astrocytoma cells; at 50 µM; non-transfected astrocytoma 1321N1 cells; triplicate; read-out: H-1321N1 Cell Line (%cytotoxicity ±SEM)
Description: A 96-well plate was used to plate 20,000 human 1321N1 astrocytoma cells and allowed for incubation for 24 h at temp of 37°C in CO2 (5%) incubator. Next to this, the prepared culture media was changed to media which was free from FBS, the test compounds were added and the incubation process was repeated. After incubation of 24 h, the serum free media from the wells was discarded, and 100 μL of the reagent i.e., MTT reagent was pipetted. Plate was then additionally incubated at 37°C for 4 h. Utilizing a microplate reader, absorbance was determined at 570 nm and 630 nm for calculation of cell viability (FLUOstarOmega Microplate Reader-BMG LABTECH GmbH, Ortenberg, Germany) ([Sauer et al., 2009]).

MTT assay, HEK-293 = assay type: cell-based; details: human, HEK-293 cells; at 50 µM; triplicate; read-out: HEK-293 Cell Line (%cytotoxicity ±SEM)
MTT assay, HeLa = assay type: cell-based; details: human, HeLa cells; at 50 µM; triplicate; read-out: HeLa Cell Line (%cytotoxicity ±SEM)
[2] = Ca2+ mobilization inhibition, transfected 1321N1 cells, 100 μM ADP, read-out: IC50 ± SEM t-P2Y1
[3] = 1321-N1, final conc of 100 μM, 500 μM UTP, read-out: % Inhibition h-P2Y4
[4] = Ca2+ mobilization inhibition, transfected 1321N1 cells, 100 μM of UDP, read-out: IC50 ± SEM r-P2Y6
[5] = Ca2+ mobilization inhibition, transfected 1321N1 cells, 500 μM ATP, read-out: IC50 ± SEM h-P2Y2
[6] = Ca2+ mobilization inhibition, transfected 1321N1 cells, 500 μM UTP, read-out: IC50 ± SEM h-P2Y4

Compound | IC50 (t-P2Y1; [2]) | inhibition at 100 µM (h-P2Y2; 500 μM ATP) | inhibition at 100 µM (h-P2Y4; [3]) | IC50 (r-P2Y6; [4]) | cytotoxicity at 24 h, 50 µM [1] | cytotoxicity at 24 h, 50 µM (MTT assay, HEK-293) | cytotoxicity at 24 h, 50 µM (MTT assay, HeLa) | melting point | inhibition at 100 µM (t-P2Y1; 100 μM ADP) | inhibition at 100 µM (r-P2Y6; 100 μM of UDP) | IC50 (t-P2Y1) | IC50 (h-P2Y2) | inhibition at 100 µM (h-P2Y4; 1321-N1, read-out: % Inhibition h-P2Y4) | IC50 (r-P2Y6) | IC50 (h-P2Y2; [5]) | IC50 (h-P2Y4; [6]) | decreased potency relatively to the derivative 1h (t-P2Y1; P2Y1) | IC50 (h-P2Y4)
Nc1nc2cc([N+](=O)[O-])ccc2n1C(=O)NS(=O)(=O)c1cc(Cl)cc(Cl)c1O [1a, 2-Amino-N-((3,5-dichloro-2-hydroxyphenyl)sulfonyl)-5-nitro-1H-benzo [d]imidazole-1-carboxamide] | 0.37 ± 0.02 µM | 44% | 41% | 0.66 ± 0.04 µM | 27.4 ± 0.5% | 13.3 ± 0.1% | 22.2 ± 1.1% | 107 to 110 °C | – | – | – | – | – | – | – | – | – | –
Cc1ccc(S(=O)(=O)NC(=O)n2c(N)nc3cc([N+](=O)[O-])ccc32)cc1 [1b, 2-Amino-5-nitro-N-tosyl-1H-benzo [d]imidazole-1-carboxamide] | – | 38% | 18% | – | 17.3 ± 0.8% | 21.3 ± 0.2% | 21.6 ± 0.2% | 113 to 115 °C | 33% | 21% | – | – | – | – | – | – | – | –
Cc1ccc([N+](=O)[O-])cc1S(=O)(=O)NC(=O)n1c(N)nc2cc([N+](=O)[O-])ccc21 [1c, 2-Amino-N-((2-methyl-5-nitrophenyl)sulfonyl)-5-nitro-1H-benzo [d]imidazole-1-carboxamide] | – | – | – | – | 21.1 ± 0.6% | 19.5 ± 0.4% | 26.4 ± 0.7% | 117 to 119 °C | – | – | 11.11 ± 0.04 µM | 6.32 ± 1.1 µM | 42% | 16.1 ± 0.59 µM | – | – | – | –
Nc1nc2ccccc2n1C(=O)NS(=O)(=O)c1cc(Cl)cc(Cl)c1O [1e, 2-Amino-N-((3,5-dichloro-2-hydroxyphenyl)sulfonyl)-1H-benzo [d]imidazole-1-carboxamide] | 0.46 ± 0.01 µM | – | – | 0.75 ± 0.08 µM | 39.9 ± 0.2% | 16.3 ± 0.2% | 21.3 ± 0.6% | 115 to 117 °C | – | – | – | – | – | – | 5.5 ± 1.21 µM | 0.6 ± 0.01 µM | – | –
Nc1nc2ccccc2n1C(=O)NS(=O)(=O)c1ccc(Cl)cc1 [1f, 2-Amino-N-((4-chlorophenyl)sulfonyl)-1H-benzo [d]imidazole-1-carboxamide] | 0.94 ± 0.01 µM | – | 47% | 9.3 ± 1.12 µM | 23.6 ± 0.8% | 21.2 ± 0.7% | 16.4 ± 0.2% | 110 to 112 °C | – | – | – | – | – | – | 8.41 ± 0.07 µM | – | about five | –
Cc1ccc([N+](=O)[O-])cc1S(=O)(=O)NC(=O)n1c(N)nc2ccccc21 [1g, 2-Amino-N-((2-methyl-5-nitrophenyl)sulfonyl)-1H-benzo [d]imidazole-1-carboxamide] | 11.2 ± 0.71 µM | 33% | 13% | – | 46.2 ± 0.2% | 14.3 ± 0.3% | 11.6 ± 1.1% | 183 to 184 °C | – | 40% | – | – | – | – | – | – | – | –
Nc1nc2cc(Cl)ccc2n1C(=O)NS(=O)(=O)c1ccc(Cl)cc1 [1i, 2-Amino-5-chloro-N-((4-chlorophenyl)sulfonyl)-1H-benzo [d]midazole-1-carboxamide] | 1.21 ± 0.07 µM | – | 34% | – | 38.7 ± 0.8% | 36.2 ± 0.1% | 39.3 ± 0.4% | 129 to 131 °C | – | 41% | – | – | – | – | 15.7 ± 1.48 µM | – | – | –
Cc1ccc([N+](=O)[O-])cc1S(=O)(=O)NC(=O)n1c(N)nc2cc(Cl)ccc21 [1j, 2-Amino-5-chloro-N-((2-methyl-5-nitrophenyl)sulfonyl)-1H-benzo [d]imidazole-1-carboxamide] | 13.4 ± 0.22 µM | 32% | 42% | 25.4 ± 3.1 µM | 44.3 ± 0.6% | 38.2 ± 0.4% | 26.1 ± 0.7% | 144 to 146 °C | – | – | – | – | – | – | – | – | – | –
Nc1nc2cc(Cl)ccc2n1C(=O)NS(=O)(=O)c1ccc([N+](=O)[O-])cc1 [1k, 2-Amino-5-chloro-N-((4-nitrophenyl)sulfonyl)-1H-benzo [d]imidazole-1-carboxamide] | 12.4 ± 1.03 µM | – | – | 8.49 ± 1.23 µM | 41.7 ± 0.2% | 27.2 ± 0.2% | 21.7 ± 0.9% | 183 to 184 °C | – | – | – | – | – | – | 11.1 ± 0.94 µM | 16.6 ± 1.12 µM | – | –
O=C(NS(=O)(=O)c1ccc(-c2ccccc2)cc1)n1c(-c2ccccc2)nc2ccccc21 [1l, N-([1.1′-biphenyl]-4-ylsulfonyl)-2-phenyl-1H-benzo [d]imidazole-1-carboxamide] | – | 34% | 22% | – | 47.2 ± 0.4% | 21.3 ± 0.6% | 28.3 ± 1.2% | 133 to 135 °C | 27% | 43% | – | – | – | – | – | – | – | –
O=C(NS(=O)(=O)c1ccccc1)n1c(-c2ccccc2)nc2ccccc21 [1m, 2-Phenyl-N-(phenylsulfonyl)-1H-benzo [d]imidazole-1-carboxamide] | – | 37% | 16% | – | 37.9 ± 0.7% | 33.3 ± 0.3% | 39.4 ± 1.3% | 154 to 156 °C | 29% | 21% | – | – | – | – | – | – | – | –
Nc1c(S(=O)(=O)O)cc(Nc2ccc(Nc3nc(Cl)nc(Nc4cccc(S(=O)(=O)O)c4)n3)c(S(=O)(=O)O)c2)c2c1C(=O)c1ccccc1C2=O [Reactive Blue 2, reference compound] | – | – | – | 2.8 ± 0.11 µM | – | – | – | – | – | – | – | 0.57 ± 0.02 µM | – | – | – | – | – | 8.4 ± 1.2 µM
